Data as given in publication PMC8608343 (PLoS ONE, 2021).
Converted amounts (≈) assume the structure as drawn.

Experiments:
[1] = system: Leishmania donovani promastigotes; assay: Antileishmanial activity against promastigotes (MTT assay); assay type: cell-based; settings: for IC50 (μg/ml) ±SD promastigote / IC50: 96 hrs at 25° C, MTT, mean of three experiments; for Therapeutic Index (TC50/IC50) promastigotes: TC50 RAW / IC50 promastigote; for IC50: Leishmania donovani, read-out: IC50 (μg/ml) ±SD promastigote
Source text: Amphotericin B was used as a positive control. The 3-(4,5-Dimethylthiazol-2-yl)-2,5-diphenyltetrazolium bromide (MTT) assay was used to determine the parasite viability as previously described.

[2] = system: Leishmania donovani amastigotes in RAW macrophage cells; assay: Antileishmanial activity against macrophage-amastigotes (MTT assay); assay type: cell-based; settings: for Therapeutic Index (TC50/IC50) amastigotes: TC50 RAW / IC50 amastigote; for IC50 (μg/ml) ±SD amastigote / IC50: amastigotes in RAW macrophages, MTT; for IC50: Leishmania donovani, Macrophage, read-out: IC50 (μg/ml) ±SD amastigote
Procedure: The RAW macrophage cells were infected with promastigotes at a density of 1:10 ratio, respectively for 12 hrs and the non-phagocytosed promastigotes and media removed by aspiration. The RAW macrophages cells containing the internalized amastigote cells were treated with the compounds to test for their growth inhibitory potentials as previously described. The 3-(4,5-Dimethylthiazol-2-yl)-2,5-diphenyltetrazolium bromide (MTT) assay was also used to determine the parasite viability. […] was measured with a Varioskan Lux Elisa plate reader at a wavelength of 570 nm.

[3] = system: RAW 264.7 murine macrophage cell line; assay: Cytotoxicity against mammalian RAW macrophage cell line (MTT assay); settings: 48 hrs, 50% cytotoxic concentration
Source text: Here, amphotericin B was used as a positive control and the negative control was untreated RAW cell line.

O+ human red blood cells = assay: Haemolytic potential; settings: 2% haematocrit, up to 100 μg/ml
Procedure: The compounds were tested against the O^+ human red blood cells (obtained from the Malaria laboratory of WACCBIP) at a density of 2% haematocrit for their ability to lyse erythrocytes upon incubation. Here, a concentration of up to 100 μg/ml of compounds was used, and the 50% haemolytic concentration (HC50) of the compounds were determined by analysis of dose-response curves as described.

[4] = system: Leishmania donovani amastigotes; assay: ROS generation in treated amastigotes (H2DCFDA); assay type: cell-based; settings: 100, 50 or 25 μM, 24 hrs
Procedure: (§1) The degree of reactive oxygen species (ROS) production in treated promastigote and amastigote cells of L. donovani were assessed using the H2DCFDA (2’,7’-dichlorodihydrofluorescein diacetate) rich fluorescent dye (MAK145 Sigma-Aldrich) ROS detection kit. […] Amoxicillin was used as a positive control for pro-oxidative generation while Vitamin C was used as a positive control for anti-oxidative potential. The treated and untreated cells were then suspended in PBS, washed, and resuspended in PBS, then incubated with the ROS detection master mix for 1 hr as instructed by the protocol. The cells were analyzed for intracellular ROS generation by measuring the fluorescence intensity which is proportional to the ROS production level using the Varioskan Lux Elisa microplate reader (Thermo Fischer Scientific, USA) at a wavelength of 605 nm.

[5] = system: Leishmania donovani promastigotes; assay: ROS generation in treated promastigotes (H2DCFDA); assay type: cell-based; settings: 100, 50 or 25 μM, 72 hrs
Procedure: as §1

[6] = system: Leishmania donovani promastigotes; assay: Growth kinetics and cytocidal/cytostatic (growth reversibility) assay; assay type: cell-based; settings: 1 μg/ml, 120 hrs treatment, then 96 hrs in fresh media
Procedure: The compounds (at 1 μg/ml) were tested for their effects on the growth kinetic pattern against the promastigotes of L. donovani. The parasite cells (2 x 10^5 cells/ml) were incubated at 25° C in the presence of the test compounds in M199 supplemented with 10% FBS. Amphotericin B treated parasites (0–50 μg/ml) were used as the positive control while the untreated promastigotes in medium alone served as the negative control. Viable cells were counted every 24 hrs for a total of 120 hrs as indicated in previous studies.
The cytocidal/cytostatic effect of the test compounds were assessed by analyzing the treated and untreated parasites after 120 hrs of incubation. Cells were washed twice with fresh M199, resuspended in complete M199 media and incubated further for 96 hrs. The viable cells were then counted microscopically.

[7] = system: Leishmania donovani promastigotes; assay: Morphological and mitochondrion effects by fluorescence microscopy (DAPI, MitoTracker); assay type: cell-based; settings: for morphological / mitochondrial changes after 72 hrs: 2x IC50, 72 hrs
Procedure: Their mitochondrial integrity were analyzed using a slightly modified DAPI and Mitotracker dye protocol as described by Amisigo and colleagues.

SMILES | IC50 (μg/ml) ±SD promastigote [1] | Therapeutic Index (TC50/IC50) promastigotes [1] | Therapeutic Index (TC50/IC50) amastigotes [2] | IC50 (μg/ml) ±SD amastigote [2] | TC50 (μg/ml) ±SD RAW [3] | HC50 (O+ human red blood cells) | ROS generation effect in amastigotes [4] | ROS generation effect in promastigotes [5] | also measured
COc1ccc(C2=NN(C3CCCCCC3)C(=O)[C@@H]3CC=CC[C@H]23)cc1OCCCCOc1ccc(-c2nn[nH]n2)cc1 [Compound C02B] | 0.15 ± 0.130 µg/mL (≈ 0.257 µM) | 2.53 | 2.92 | 0.13 ± 0.004 µg/mL (≈ 0.222 µM) | 0.38 ± 0.010 µg/mL (≈ 0.65 µM) | >100 µg/mL | anti-oxidative effect |  | 
Nc1ncnc2c1ncn2C[C@@H](O)[C@@H](O)C(=O)O [MMV689255] |  |  |  |  |  |  | anti-oxidative effect |  | 
Clc1cccc(CO[C@H]2CCc3ccccc3[C@@H]2n2ccnn2)c1 [Compound A07E] | >6.25 µg/mL | 0.07 | 0.07 | >6.25 µg/mL | 0.41 ± 0.020 µg/mL (≈ 1.21 µM) | >100 µg/mL |  |  | 
C[C@@H]1[C@H](O)[C@@H](C)/C=C/C=C/C=C/C=C/C=C/C=C/C=C/[C@H](O[C@@H]2O[C@H](C)[C@@H](O)[C@H](N)[C@@H]2O)C[C@@H]2O[C@](O)(C[C@@H](O)C[C@@H](O)[C@H](O)CC[C@@H](O)C[C@@H](O)CC(=O)O[C@H]1C)C[C@H](O)[C@H]2C(=O)O [Amphotericin B, reference compound] |  |  |  |  |  |  | anti-oxidative effect | anti-oxidative effect | 
CNC(=O)c1nn(C)c2c1C(C)(C)Cc1cnc(Nc3ccc(N4CCN(C)CC4)cc3)nc1-2 [Compound H02B] | 0.12 ± 0.150 µg/mL (≈ 0.261 µM) | 0.92 | 0.02 | >6.25 µg/mL | 0.11 ± 0.010 µg/mL (≈ 0.239 µM) | >100 µg/mL | pro-oxidative effect | anti-oxidative effect | cytocidal/cytostatic effect upon drug withdrawal [6]: cytocidal effect
CO[C@@H](C(=O)N1Cc2[nH]nc(NC(=O)c3ccc(N4CCN(C)CC4)cc3)c2C1)c1ccccc1 [Compound C03B] | 0.62 ± 0.010 µg/mL (≈ 1.31 µM) | 0.34 |  | >6.25 µg/mL | 0.21 ± 0.010 µg/mL (≈ 0.443 µM) | >100 µg/mL |  | pro-oxidative action | 
CCOc1ccc2cc(-c3nn(CC4CCN(C)CC4)c4ncnc(N)c34)ccc2c1 [MMV688854] |  |  |  |  |  |  | anti-oxidative effect |  | 
CCC(=O)Nc1ccccc1C(=O)Nc1ccccn1 [MMV202553] |  |  |  |  |  |  |  | anti-oxidative effect | 
CS(=O)(=O)c1ccccc1C(=O)N(Cc1ccccc1)c1ccccc1 [Compound H05A] | 0.78 ± 0.170 µg/mL (≈ 2.13 µM) | 0.19 | 0.60 | 0.25 ± 0.040 µg/mL (≈ 0.684 µM) | 0.15 ± 0.030 µg/mL (≈ 0.41 µM) | >100 µg/mL |  | anti-oxidative effect | 
CC1CCCCN1C(=O)NCCc1coc(-c2ccc(F)cc2)n1 (stereo not drawn) [Compound E05A] | 0.39 ± 0.060 µg/mL (≈ 1.18 µM) | 256.41 | 36.50 | 2.74 ± 0.100 µg/mL (≈ 8.27 µM) | >100 µg/mL | >100 µg/mL |  | anti-oxidative effect | 
O=C(Nc1ccc2c(c1)B(O)OC2)c1ccccc1C(F)(F)F [Compound A03B] | 0.44 ± 0.200 µg/mL (≈ 1.37 µM) | 0.41 | 0.90 | 0.20 ± 0.030 µg/mL (≈ 0.623 µM) | 0.18 ± 0.050 µg/mL (≈ 0.561 µM) | >100 µg/mL | anti-oxidative effect | anti-oxidative effect | 
CC(C)(C)OC(=O)N1CCN(c2cc(-c3ccc(Oc4ccccc4)cc3)n[nH]2)CC1 [MMV676057] |  |  |  |  |  |  | pro-oxidative effect | anti-oxidative effect | 
CCN(CC)CCCCCCNc1cc(OC)cc2c(C)ccnc12 [MMV000063] |  |  |  |  |  |  | anti-oxidative effect |  | 
CC(C)(C)C(O)C(Oc1ccc(-c2ccccc2)cc1)n1cncn1 (stereo not drawn) [MMV688942] |  |  |  |  |  |  |  | anti-oxidative effect | 
CC1(C)S[C@@H]2[C@H](NC(=O)[C@H](N)c3ccc(O)cc3)C(=O)N2[C@H]1C(=O)O [Amoxicillin, reference compound] |  |  |  |  |  |  | pro-oxidative effect | pro-oxidative action | 
N=C(N)c1ccc(-c2cc(-c3ccccc3)on2)cc1 [Compound E02A] |  | 344.83 | 18.73 |  | >100 µg/mL | >100 µg/mL |  | anti-oxidative effect | IC50 [1]: 0.29 ± 0.001 µg/mL (≈ 1.1 µM); IC50 [2]: 5.34 ± 0.01 µg/mL (≈ 20.3 µM); morphological / mitochondrial changes after 24 hrs ([7]; 2x IC50, 24 hrs): did not show marked morphological changes; morphological / mitochondrial changes after 72 hrs [7]: degenerate after 72 hrs
O=C1O[C@H]([C@@H](O)CO)C(O)=C1O [Vitamin C, reference compound] |  |  |  |  |  |  | anti-oxidative effect | anti-oxidative effect | 
O=C(NCc1nnc2n1CCCCC2)c1ccc(-c2ccc(F)cc2)o1 [Compound A06A] |  | 2.05 | 1.03 |  | 0.39 ± 0.05 µg/mL (≈ 1.1 µM) | >100 µg/mL |  | anti-oxidative effect | IC50 [1]: 0.19 ± 0.008 µg/mL (≈ 0.536 µM); IC50 [2]: 0.38 ± 0.01 µg/mL (≈ 1.07 µM); cells with slight enlargement of nuclear and kinetoplast DNA ([7]; 2x IC50, 24 hrs): 50%; morphological / mitochondrial changes after 72 hrs [7]: most of the few cells left lost their kinetoplast DNA
c1ccc(Oc2ccc(-c3cc(C4CCOCC4)n[nH]3)cc2)cc1 [Compound D02A] |  | 476.19 | 454.55 |  | >100 µg/mL | >100 µg/mL |  |  | IC50 [1]: 0.21 ± 0.01 µg/mL (≈ 0.655 µM); IC50 [2]: 0.22 ± 0.02 µg/mL (≈ 0.687 µM); morphological / mitochondrial changes after 24 hrs ([7]; 2x IC50, 24 hrs): degeneration in the mitochondria integrity; morphological / mitochondrial changes after 72 hrs [7]: degeneration of the nuclear and kinetoplast DNA continued
CCc1nn(C)c(C(=O)NCc2ccc(Oc3ccc(C)cc3)cc2)c1Cl [MMV688934] |  |  |  |  |  |  |  | anti-oxidative effect | 
